Data taken from patent US20210393735A1, “PHARMACEUTICAL COMPOSITION COMPRISING TEICOPLANIN” (GALENUS G.H. AG, priority 2018, published 2021).

Key:
[1] = Phase-1 open cross-over cohort study in healthy subjects: conventional vs novel teicoplanin dosage regimen (pharmacokinetics, tolerability); format: in vivo, human (healthy subjects)
Method: Teicoplanin: Conventional Dosage Regimen as Compared to the Novel Dosage Regimen
Phase-1 Study in Healthy Subjects
The study is performed as an open, cross over cohort-study after having received ethical approval and written consent by the participating 6 healthy subjects (3 males and 3 females). The principle study design of Outman et al (1990 [4]) is used with the following modification: 6 loading doses are followed by the maintenance dosing phase up to a total of 6 days.
In the first cross over comparative study, the following two dosage regimens are used:
Regimen A1: 6 loading dosages of 400 mg twice daily (bid) followed by 3 dosages of 400 mg once daily (total 6 days): total dosage 3600 mg
Regimen B1: first loading dose 800 mg followed by 4 dosages 400 mg bid, followed by 6 dosages 200 mg bid (total 6 days): total dosage 3600 mg.
In the second cross over comparative study, the following two dosage regimens are used:
Regimen A2: 6 loading dosages of 800 mg bid followed by 3 dosages of 800 mg once daily (total 6 days): total dosage 7200 mg
Regimen B2: 6 loading dosages of 800 mg bid followed by 6 dosages 400 mg bid (total 6 days): total dosage 7200 mg.

[2] = tested on: Gram-positive bacteria such as staphylococci (including methicillin-resistant strains), streptococci, enterococci and many anaerobic Gram-positive bacteria; details: Campoli-Richards et al. 1990 [2]; cited from earlier work
[3] = tested on: clinical isolates of Clostridium difficile; details: isolates from patients with hospital or community acquired CDI; Jamal, Rotimi 2016 [3]; cited from earlier work
[4] = in vivo; cited from earlier work
[5] = overall, no significant difference between regimens A and B in both studies

teicoplanin
phlebitis or renal, hepatic, or ototoxicity ([1]; 1st and 2nd study): no evidence | tolerability ([1]; 1st and 2nd study, both dosing regimens): generally well tolerated | trough levels ([1]; 1st study, 1st day, regimen A1 (6 x 400 mg bid, then 3 x 400 mg once daily)): 8 to 15 mg/L | trough levels ([1]; 1st study, 1st day, regimen B1 (800 mg, then 4 x 400 mg bid, then 6 x 200 mg bid)): 18 to 25 mg/L | trough levels ([1]; 1st study, day 4 to 6, regimen A1): 10 to 18 mg/L | trough levels ([1]; 1st study, day 4 to 6, regimen B1): 20 to 30 mg/L | trough levels ([1]; 2nd study, 1st day, regimen A2 (6 x 800 mg bid, then 3 x 800 mg once daily)): 14 to 24 mg/L | trough levels ([1]; 2nd study, 1st day, regimen B2 (6 x 800 mg bid, then 6 x 400 mg bid)): 25 to 34 mg/L | trough levels ([1]; 2nd study, day 4 to 6, regimen A2): 18 to 26 mg/L | trough levels ([1]; 2nd study, day 4 to 6, regimen B2): 30 to 38 mg/L | higher trough levels with novel vs conventional dosage regimen ([1]; at the 1st day (first study only) and from day 4 on): about 50% | lightheadedness during the infusion ([1]; during infusion of some, but not all, doses, 6 healthy subjects): Two subjects experience transient lightheadedness | renal clearance [1, 5]: 0.19 ± 0.015 mL/min/kg | t1/2 [1, 5]: 157+93 h | total clearance [1, 5]: 0.21 ± 0.018 mL/min/kg | susceptibility in vitro [2]: susceptible | activity against clinical isolates [3]: active | terminal half-life, mean (±SD) [4]: 157 (±93) hours (h) | terminal half-life, median (range) [4]: 168 (111-278) h
